Key:
[1] = Selectivity ratio of IC50 for cytotoxicity against human THP-1 cells to IC50 for Antileishmanial activity against Leishmania infantum MCAN/ES/89/IPZ229/1/89 amastigotes; format: toxicity, cell-based; conditions: read-out: Ratio IC50
[2] = tested on: Leishmania infantum; test: Antileishmanial activity against Leishmania infantum MCAN/ES/89/IPZ229/1/89 amastigotes assessed as reduction in parasite growth incubated for 24 hrs by flow cytometry analysis; format: functional, organism-based; conditions: MCAN/ES/89/IPZ229/1/89, 24 h
[3] = tested on: Leishmania infantum; test: Antileishmanial activity against Leishmania infantum MCAN/ES/89/IPZ229/1/89 promastigotes assessed as reduction in parasite growth incubated for 24 hrs by flow cytometry analysis; format: functional, organism-based; conditions: MCAN/ES/89/IPZ229/1/89, 24 h
[4] = tested on: Trypanosoma cruzi; test: Trypanocidal activity against Trypanosoma cruzi Y strain amastigotes measured after 48 hrs; format: functional, organism-based
[5] = Selectivity ratio of IC50 for cytotoxicity against mouse J774.1 cells to IC50 for Trypanocidal activity against Trypanosoma cruzi Tulahuen 2 strain; format: toxicity, cell-based; conditions: read-out: Ratio IC50
[6] = tested on: Trypanosoma cruzi; test: Trypanocidal activity against Trypanosoma cruzi Y strain; format: functional, organism-based
[7] = tested on: Trypanosoma cruzi; test: Trypanocidal activity against Trypanosoma cruzi Y strain measured after 24 hrs; format: functional, organism-based
[8] = tested on: Trypanosoma cruzi; test: Potency index, ratio of test compound IC50 to Benznidazole IC50 for Trypanocidal activity against Trypanosoma cruzi Y strain measured after 24 hrs; format: functional
[9] = tested on: Trypanosoma cruzi; test: Trypanocidal activity against Trypanosoma cruzi Y strain epimastigotes measured after 72 hrs; format: functional, organism-based
[10] = Selectivity ratio of IC50 for cytotoxicity against human MRC5 cells to IC50 for Trypanocidal activity against Trypanosoma cruzi Tulahuen CL2 strain; format: toxicity, cell-based; conditions: read-out: Ratio IC50

Structure (SMILES): C[Se]/C(=N/C(=O)c1cccnc1)NC(=O)c1cccnc1
- selectivity ratio [1]: 4
- IC50 [2]: 3.03 µM
- IC50 [3]: 3.74 µM

Structure (SMILES): CCNC(=O)SCCOc1ccc(Oc2ccccc2)cc1
- IC50 [4]: 7.88 µM

Structure (SMILES): O=C(CS/C(C(=O)c1ccc2ccccc2c1)=C1\C=C(c2ccc(O)cc2)SS1)c1ccc2ccccc2c1
- selectivity ratio at 48 h [5]: 12.8

Structure (SMILES): Cc1cccc([Se]C2CC3=C(OC2(C)C)c2ccccc2C(=O)C3=O)c1 (stereo not given)
- IC50 [6]: 1680 µM

Structure (SMILES): COc1cccc([Se]C2CC3=C(OC2(C)C)c2ccccc2C(=O)C3=O)c1 (stereo not given)
- IC50 [6]: 208 µM

Structure (SMILES): COc1ccccc1/C=C/C=N/NC(N)=S
- IC50 [7]: 0.4 µM

Structure (SMILES): CC1(C)OC2=C(CC1[Se]c1cccc(Cl)c1)C(=O)C(=O)c1ccccc12 (stereo not given)
- IC50 [6]: 360 µM

Structure (SMILES): CC1(C)OC2=C(CC1[Se]c1cccc(Br)c1)C(=O)C(=O)c1ccccc12 (stereo not given)
- IC50 [6]: 477 µM

Structure (SMILES): CC1(C)OC2=C(CC1[Se]c1ccc(C(F)(F)F)cc1)C(=O)C(=O)c1ccccc12 (stereo not given)
- Ratio IC50 [8]: 2
- IC50 [6]: 54.9 µM

Structure (SMILES): CC(C)=CCC/C(C)=C/COc1ccc(CCN(C)C(=O)/C=C/S(C)(=O)=O)cc1
- IC50 [9]: 1.23 µM

Structure (SMILES): CCOc1cccc2sc(N(Cc3cccnc3)C(=O)C3CCCCC3)nc12
- selectivity ratio [10]: > 200

Structure (SMILES): O=C(Cn1ccnc1[N+](=O)[O-])NCc1ccccc1 [BENZNIDAZOLE]
- IC50 [6]: 104 µM
